Assay results reported in PubChem BioAssay (NCI).
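Exposure lasted 48 hours, with cells grown in 96-well plates and compounds tested at five concentrations. The concentration for 50% growth inhibition is given as GI50. The concentration for full growth arrest is given as TGI.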

Key:
Test in all cases: growth of human tumour cells (NCI), 48 h
U251 CNS = system: U251 CNS
HCT-15 colon = system: HCT-15 colon
SR leukemia = system: SR leukemia
NCI-H460 lung = system: NCI-H460 lung
PC-3 prostate = system: PC-3 prostate
SK-MEL-2 melanoma = system: SK-MEL-2 melanoma
SK-OV-3 ovarian = system: SK-OV-3 ovarian
LOX IMVI melanoma = system: LOX IMVI melanoma
NCI-H522 lung = system: NCI-H522 lung
A498 renal = system: A498 renal

| Compound | GI50 (U251 CNS) [µM] | TGI (U251 CNS) [µM] | GI50 (HCT-15 colon) [µM] | TGI (HCT-15 colon) [µM] | GI50 (SR leukemia) [µM] | TGI (SR leukemia) [µM] | GI50 (NCI-H460 lung) [µM] | TGI (NCI-H460 lung) [µM] | GI50 (PC-3 prostate) [µM] | TGI (PC-3 prostate) [µM] | GI50 (SK-MEL-2 melanoma) [µM] | TGI (SK-MEL-2 melanoma) [µM] | GI50 (SK-OV-3 ovarian) [µM] | TGI (SK-OV-3 ovarian) [µM] | GI50 (LOX IMVI melanoma) [µM] | TGI (LOX IMVI melanoma) [µM] | GI50 (NCI-H522 lung) [µM] | TGI (NCI-H522 lung) [µM] | GI50 (A498 renal) [µM] | TGI (A498 renal) [µM] |
| --- | --- | --- | --- | --- | --- | --- | --- | --- | --- | --- | --- | --- | --- | --- | --- | --- | --- | --- | --- | --- |
| CCOc1cc(Cl)c(C(C)NC(=O)c2cccc(OC)c2)cc1OCC (centres undefined) | 8.18 | > 100 | 4.06 | > 100 | 3.92 | > 100 | 4.79 | > 54.8 | 15.1 | > 100 | 4.67 | > 100 | 15.6 | > 100 | 14.2 | > 100 | 5.04 | 39.7 | 0.561 | 21.9 |
| CCOC(=O)C#Cc1cccc(C#CC(=O)OCC)c1 | – | 9.87 | – | 16.1 | – | 3.25 | – | 39.2 | – | 14.9 | – | 5.04 | – | 19.5 | – | 5.83 | – | 30.9 | – | 36.2 |
| C=C(C)COc1ccc2c(c1)CCC1C2CCC2(C)C(=O)/C(=N/O)CC12 (centres undefined) | – | 16.3 | – | 7.52 | – | 4.14 | – | 3.14 | – | 10.5 | – | 14.1 | – | 22.4 | – | 13.9 | – | 17.4 | – | 24.3 |
| COc1cccc2nc(Nc3cccc(NC(=O)c4ccc(N5CCN(C)CC5)c(C(F)(F)F)c4)c3)ccc12 | 0.885 | 1.68 | 0.937 | 2.03 | 1.13 | 3.45 | 0.964 | 1.98 | 1.26 | 4.51 | 1.36 | 3.65 | 1.73 | 6.11 | 0.874 | 1.57 | 1.04 | 2 | 1.8 | 6.46 |
| CCCCCCCCCCCCCCCC(=O)NS(=O)(=O)OC[C@H]1O[C@@H](n2cnc3c(N)ncnc32)[C@H](O)[C@@H]1O | < 0.0162 | < 0.0277 | < 0.0424 | 2.11 | < 0.021 | 4.38 | 0.107 | 8.6 | – | < 0.0166 | 0.588 | 2.83 | 0.278 | 1.15 | 0.394 | 1.58 | 0.0479 | 0.427 | < 0.03 | < 0.048 |
| CC(C)C[C@H](NC(=O)[C@@H](Cc1ccccc1)n1ccc(Nc2ccccc2)cc1=O)B(O)O | 0.417 | 12.2 | 1.11 | 17 | 0.0955 | 2.02 | 0.836 | 8.29 | 2.25 | 19.6 | 0.316 | 1.59 | 0.653 | 18.8 | 0.151 | 0.409 | 0.242 | 0.821 | 0.0262 | 0.36 |
| COc1ccc(-c2nc3sccn3c2-c2ccnc(NCCNS(=O)(=O)c3ccc(C(F)(F)F)cc3)n2)cc1 | 4.45 | > 100 | 2.59 | > 100 | 0.972 | > 100 | 2 | 11.6 | 0.303 | 3.34 | 3.04 | 9.26 | 4.44 | > 100 | 3.26 | 19.2 | 2.81 | 17 | 0.31 | 6.86 |
